Columns and labels:
Type in all cases: cell-based
[1] = tested on: HL60 cells; assay: Anti-proliferation on HL60 cells (CellTiter-Glo, 3 days); conditions: Homo sapiens, HL-60, 72 h, 3 days incubation, CTG luminescence, IC50 by XLfit, read-out: HL60 cells Proliferation inhibitory activity
Experimental: HL60 cells (Cell Bank of Chinese Academy of Sciences) in the logarithmic growth phase were counted and plated evenly in a 96-well transparent bottom white plate at 20000 cells per well and 100 μL per well.
A certain amount of the compound of the present invention was weighed and diluted with DMSO to a 10 mM stock solution. The culture medium RPMI-1640 (meilunbio, MA0215) corresponding to the cells were taken, and the compound was diluted to the concentration required by the test, shaken gently and mixed evenly. 50 μL of the gradient dilution of the diluted compound was added to each well of the plated cells, and 50 μL of 0.1% DMSO was added to the control group. The plate was shaken gently, mixed evenly and incubated in a cell culture incubator for 3 days.
• 3.1 The CellTiter-Glo™ (CTG) (purchased from Promega, Cat. No. G9242) reagent was taken in advance from the −20° C. refrigerator and equilibrated to room temperature in the dark. Cell Titer-Glo buffer and Cell Titer-Glo substrate were mixed at a ratio of 1:1 to prepare a CTG detection reagent. • 3.2 The 96-well plate was taken out and inspected under a microscope for growth. • 3.3 The bottom of the 96-well plate was tagged with white paper, and then the plate was wrapped with tin foil paper, shaken at 37° C. at 300 r for 10 min and mixed evenly. • 3.4. 50 μL of CTG detection reagent was added to each well, Luminescence signal was detected using a microplate reader Biotek Synergy Hi, and the inhibition rate was calculated. IC50 values of the compounds were calculated by XLfit 5.5.0 software to evaluate the proliferation inhibitory activity on HL60 cells.

[2] = target: T1, c-Myc protein (Homo sapiens, UniProt P01106); assay: c-Myc protein degradation in HL60 cells (Western blot); conditions: HL-60, compound at 10 nM, 24 h, gray value relative to Ctrl (DMSO), read-out: Remaining amount of c-Myc protein (@10 nM/Ctrl)
T1 construct: degradation of myc and GSPT1 proteins in HL60 cells; endogenous in cells; host or cells: HL60
T1 sequence (P01106 whole entry): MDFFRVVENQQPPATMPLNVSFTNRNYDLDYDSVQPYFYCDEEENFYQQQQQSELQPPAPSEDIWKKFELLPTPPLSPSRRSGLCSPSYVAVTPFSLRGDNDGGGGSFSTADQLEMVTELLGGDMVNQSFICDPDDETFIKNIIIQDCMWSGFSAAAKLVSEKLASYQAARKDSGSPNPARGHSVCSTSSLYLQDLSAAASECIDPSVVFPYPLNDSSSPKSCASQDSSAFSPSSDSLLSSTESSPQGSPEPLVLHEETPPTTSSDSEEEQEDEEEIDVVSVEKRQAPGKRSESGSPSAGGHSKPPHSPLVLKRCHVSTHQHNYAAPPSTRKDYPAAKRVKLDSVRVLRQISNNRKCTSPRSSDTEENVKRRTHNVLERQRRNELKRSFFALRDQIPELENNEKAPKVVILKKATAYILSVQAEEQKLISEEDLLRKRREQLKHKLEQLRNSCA
Experimental: (§1) HL60 cells in the exponential growth phase were digested and plated into a 6-well plate at 1×10^6 cells per well. The cell culture medium was RPMI-1640 (meilunbio, MA0215). After a day of adherent growth of the cells, the compound of the present invention was added as a test drug for culture, and proteins were extracted 24 h later (Ctrl meant adding only DMSO at the same volume).
(§2) In the 6-well plate, the culture medium RPMI-1640 (meilunbio, MA0215) was removed, and the cells were washed once with PBS, digested with trypsin, and centrifuged and collected separately into 1.5 mL centrifuge tubes. 100 μL of RIPA lysis buffer (containing 100 μM PMSF) was added to each tube, mixed thoroughly, allowed to stand on ice for 30 min and then centrifuged at 12000 rpm at 4° C. using a centrifuge for 20 min. The supernatant was used for Western blotting experiments. The sample can be stored at −80° C.
(§3) By using the BCA protein concentration determination kit (from Thermo Fisher, Cat. No. 23225), the BSA standard determination solution and the samples to be tested (the samples to be tested can be diluted and then tested) were prepared according to the table A below. Samples were added to the 96-well plate. Each well was supplemented with PBS to 20 μL, and then 200 μL of BCA working solution (prepared according to the kit) was added respectively and mixed evenly. The plate was placed at 60° C. for 10 min, and then the absorbance at 562 nm was detected. After the reading was recorded, a standard curve was plotted using concentration gradients of the standards, and the absorbance of the samples was substituted to calculate the protein concentration of the samples.
(§4) • 2.1 Protein denaturation: RIPA protein buffer (purchased from Solarbio, Cat. No. R0010) and 5× Loading Buffer (SDS, glycerin, bromophenol blue, TRIS) (purchased from Solarbio, Cat. No. P1040) were added, and the protein samples were denatured at 100° C. for 5 min. • 2.2 Sample loading and electrophoresis: 10% precast gel and the corresponding electrophoresis buffer were used. The same mass of protein sample and protein ladder (purchased from thermo, Cat. No. 26617) were loaded into each well, and electrophoresis at 200 V was performed for 30 min. • 2.3 […]: The gel was excised to remove the excess part. Transferring to PVDF membrane was performed by the wet transfer method (before use, it was necessary to activate the PVDF membrane with methanol for 1 min) at 300 mA for 2 h, during which a lot of heat was generated, and thus cooling with an ice box was required. • 2.4 Blocking: After the transferring, the PVDF membrane was placed in 5% skim milk and blocked with shaking at room temperature for 1 h. • 2.5 Incubating with primary antibody: The PVDF membrane was cut according to the molecular weight indicated on the marker and placed in c-myc (purchased from abcam, Cat. No. ab32072), or GSPT1 (purchased from abcam, Cat. No. ab234433), or CK1α (purchased from abcam, Cat. No. ab206652), or IKZF2 (purchased from proteintech, Cat. No. 13554-1-AP), and GAPDH (purchased from CST, Cat. No. #97166) primary antibodies. The antibodies were diluted with TBST buffer (a solution prepared from TRIS, KCL and NaCl and adjusted to pH 7.4 with hydrochloric acid, and Tween 20 was added) at a ratio of 1:1000, and blocked overnight on a shaker at 4° C. • 2.6 Incubating with secondary antibody: The PVDF membrane incubated with the primary antibody was washed with TBST for 3 times, each time for 10 min. After washing, the membrane was placed in the secondary antibody of the corresponding species, and incubated at room temperature in a shaker for 2 h. • 2.7 Washing membrane and exposure: After incubated with the secondary antibodies, the membrane was washed 3 times with TBST on a shaker, 10 minutes each time. […]

[3] = target: T2, GSPT1 protein (Homo sapiens, UniProt P15170); assay: GSPT1 protein degradation in HL60 cells (Western blot); conditions: for remaining GSPT1 protein at 0.01 µM: HL-60, compound at 10 nM, 24 h, gray value relative to Ctrl (DMSO), read-out: Remaining amount of GSPT1 protein (@10 nM/Ctrl)
T2 construct: degradation of myc and GSPT1 proteins in HL60 cells; endogenous in cells; host or cells: HL60
T2 sequence (P15170 whole entry): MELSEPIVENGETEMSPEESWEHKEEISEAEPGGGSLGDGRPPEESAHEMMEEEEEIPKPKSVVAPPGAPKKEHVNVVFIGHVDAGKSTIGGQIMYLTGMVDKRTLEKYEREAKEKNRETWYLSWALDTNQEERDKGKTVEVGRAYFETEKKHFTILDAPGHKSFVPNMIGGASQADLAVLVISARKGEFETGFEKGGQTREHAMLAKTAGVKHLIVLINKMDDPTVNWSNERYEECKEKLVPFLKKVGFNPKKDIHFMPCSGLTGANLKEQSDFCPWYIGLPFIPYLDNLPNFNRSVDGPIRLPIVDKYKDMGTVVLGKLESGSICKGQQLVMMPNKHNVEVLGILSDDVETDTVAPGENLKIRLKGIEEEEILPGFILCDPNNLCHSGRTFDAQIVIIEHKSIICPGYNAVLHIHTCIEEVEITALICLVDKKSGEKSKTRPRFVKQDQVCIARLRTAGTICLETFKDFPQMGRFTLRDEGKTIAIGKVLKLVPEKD
Experimental: as §1, §2, §3, §4

Row | Structure (SMILES) | IC50 [1] [nM] | remaining activity at 0.01 µM [2] [%] | remaining GSPT1 protein at 0.01 µM [3] [%] | Degradation of GSPT1 protein in HL60 cells at 300 nM (FIG. 2, FIG. 3, in words) [3]
1 | O=C1CCC(N2Cc3cc(NC(=O)CC4CCN(c5cc(-c6cccc7ccccc67)ccn5)CC4)ccc3C2=O)C(=O)N1 (centres unmarked) [Compound A17] | 1.2 | 23 | – | –
2 | O=C1CCC(N2Cc3cc(NC(=O)CC4CCN(c5ncc(-c6cccc7ccccc67)s5)CC4)ccc3C2=O)C(=O)N1 (centres unmarked) [Compound A24] | 0.5 | 0 | – | –
3 | O=C1CCC(N2Cc3cc(NC(=O)CC4CCN(c5ncc(-c6cccc7ccccc67)o5)CC4)ccc3C2=O)C(=O)N1 (centres unmarked) [Compound A28] | 0.9 | 43 | – | –
4 | O=C1CCC(N2Cc3cc(C(=O)NCC4CCN(c5ncc(-c6cccc7ccccc67)cn5)CC4)ccc3C2=O)C(=O)N1 (centres unmarked) [Compound A29] | 0.2 | 13 | – | –
5 | O=C1CCC(N2Cc3cc(NC(=O)CC4CCN(c5ncc(-c6cccc7ccccc67)cn5)CC4)ccc3C2=O)C(=O)N1 (centres unmarked) [Compound A30] | < 0.2 | 14 | – | –
6 | O=C1CCC(N2Cc3cc(NC(=O)CC4CCN(c5ccc(-c6cccc7ccccc67)nc5)CC4)ccc3C2=O)C(=O)N1 (centres unmarked) [Compound A37] | 0.2 | 44 | – | –
7 | O=C1CCC(N2Cc3cc(C(=O)NCC4CCN(c5nccc(-c6ccc7ccccc7c6)n5)CC4)ccc3C2=O)C(=O)N1 (centres unmarked) [Compound A38] | 0.9 | 52 | – | –
8 | O=C1CCC(N2Cc3cc(NC(=O)CC4CCN(c5ccc(-c6cccc7cccnc67)cn5)CC4)ccc3C2=O)C(=O)N1 (centres unmarked) [Compound A43] | < 0.2 | 23 | – | –
9 | O=C1CCC(N2Cc3cc(NC(=O)CC4CCN(c5ccc(-c6cccc7cccc(F)c67)cn5)CC4)ccc3C2=O)C(=O)N1 (centres unmarked) [Compound A47] | < 0.2 | 19 | – | –
10 | O=C1CCC(N2Cc3cc(NC(=O)CC4CCN(c5ncc(-c6cccc(Cl)c6)cn5)CC4)ccc3C2=O)C(=O)N1 (centres unmarked) [Compound A53] | < 0.2 | 10 | – | –
11 | O=C1CCC(N2Cc3cc(CNCC4CCN(c5ncc(-c6cccc7ccccc67)s5)CC4)ccc3C2=O)C(=O)N1 (centres unmarked) [Compound A61] | 0.3 | 0 | 4 | –
12 | O=C1CCC(N2Cc3cc(CNCC4CCN(c5cnc(-c6cccc7ccccc67)cn5)CC4)ccc3C2=O)C(=O)N1 (centres unmarked) [Compound A63] | 0.2 | 19 | 5 | –
13 | O=C1CCC(N2Cc3cc(CNCC4CCN(c5cnc(-c6cccc7ccccc67)nc5)CC4)ccc3C2=O)C(=O)N1 (centres unmarked) [Compound A64] | 10 | 0 | 5 | –
14 | O=C1CCC(N2Cc3cc(CNC(=O)C4CCN(c5ncc(-c6cccc(Cl)c6)cn5)CC4)ccc3C2=O)C(=O)N1 (centres unmarked) [Compound A65] | < 0.2 | 0 | 14 | –
15 | O=C1CCC(N2Cc3cc(CNCC4CCN(c5ncc(-c6cccc(Cl)c6)cn5)CC4)ccc3C2=O)C(=O)N1 (centres unmarked) [Compound A66] | < 0.2 | 9 | – | –
16 | O=C1CCC(N2Cc3ccc(CNCC4CCN(c5ncc(-c6cccc(Cl)c6)cc5C(F)(F)F)CC4)cc3C2)C(=O)N1 (centres unmarked) [Compound A145] | 387 | – | – | significantly degrade GSPT1 protein

Row | Structure (SMILES) | IC50 [1] [nM] | remaining activity at 0.01 µM [2] [%] | remaining GSPT1 protein at 0.01 µM [3] [%] | Degradation of GSPT1 protein in HL60 cells at 300 nM (FIG. 2, FIG. 3, in words) [3]
17 | O=C1CCC(n2nc3cc(CNCC4CCN(c5ncc(-c6cccc(Cl)c6)cc5C(F)(F)F)CC4)ccn3c2=O)C(=O)N1 (centres unmarked) [Compound A146] | 139 | – | – | significantly degrade GSPT1 protein
18 | COc1cc(CNCC2CCN(c3ncc(-c4cccc(Cl)c4)cc3C(F)(F)F)CC2)ccc1C(=O)NC1CCC(=O)NC1=O (centres unmarked) [Compound A161] | 11200 | – | – | –
19 | CN(C(=O)c1ccc(CNCC2CCN(c3ncc(-c4cccc(Cl)c4)cc3C(F)(F)F)CC2)cc1)C1CCC(=O)NC1=O (centres unmarked) [Compound A163] | 8220 | – | – | –
20 | O=C1CCC(NS(=O)(=O)c2ccc(CNCC3CCN(c4ncc(-c5cccc(Cl)c5)cc4C(F)(F)F)CC3)cc2)C(=O)N1 (centres unmarked) [Compound A164] | 7230 | – | – | –
21 | O=C1CCC(NCc2ccc(CNCC3CCN(c4ncc(-c5cccc(Cl)c5)cc4C(F)(F)F)CC3)cc2)C(=O)N1 (centres unmarked) [Compound A165] | 9560 | – | – | –
22 | O=C1CCC(NC(=O)c2ccc(C(=O)NCC3CCN(c4ncc(-c5cccc(Cl)c5)cc4C(F)(F)F)CC3)cc2)C(=O)N1 (centres unmarked) [Compound A166] | 2670 | – | – | –
23 | O=C1CCC(NC(=O)Cc2ccc(CNCC3CCN(c4ncc(-c5cccc(Cl)c5)cc4C(F)(F)F)CC3)cc2)C(=O)N1 (centres unmarked) [Compound A167] | 9580 | – | – | –
24 | O=C1CCC(n2cc(-c3ccc(CNCC4CCN(c5ncc(-c6cccc(Cl)c6)cc5C(F)(F)F)CC4)cc3)nn2)C(=O)N1 (centres unmarked) [Compound A168] | 109 | – | – | –
25 | O=C1C[C@H](N2Cc3cc(CNCC4CCN(c5ncc(-c6cccc(F)c6)cc5F)CC4)ccc3C2=O)C(=O)N1 [Compound A170] | 9860 | – | – | –
26 | O=C1C[C@@H](N2Cc3cc(CNCC4CCN(c5ncc(-c6cccc(Cl)c6)cc5C(F)(F)F)CC4)ccc3C2=O)C(=O)N1 [Compound A171] | 1570 | – | – | –
27 | O=C1C[C@H](N2Cc3cc(CNCC4CCN(c5ncc(-c6cccc(F)c6)cc5C(F)(F)F)CC4)ccc3C2=O)C(=O)N1 [Compound A172] | 9990 | – | – | –
28 | O=C1C[C@@H](N2Cc3cc(CNCC4CCN(c5ncc(-c6cccc(F)c6)cc5C(F)(F)F)CC4)ccc3C2=O)C(=O)N1 [Compound A173] | 9370 | – | – | –
29 | O=C1CCC(N2C(=O)c3cccc4c(CNCC5CCN(c6ncc(-c7cccc(Cl)c7)cc6C(F)(F)F)CC5)ccc2c34)C(=O)N1 (centres unmarked) [Compound A174] | 3920 | – | – | –
30 | O=C1CCC(N2C(=O)c3cccc4c(CNCC5CCN(c6ncc(-c7cccc(F)c7)cc6F)CC5)ccc2c34)C(=O)N1 (centres unmarked) [Compound A175] | 11500 | – | – | –
31 | Cn1nc(N2CCC(=O)NC2=O)c2cc(CNCC3CCN(c4ncc(-c5cccc(Cl)c5)cc4C(F)(F)F)CC3)ccc21 [Compound A176] | 5210 | – | – | –
32 | Cn1nc(N2CCC(=O)NC2=O)c2ccc(CNCC3CCN(c4ncc(-c5cccc(Cl)c5)cc4C(F)(F)F)CC3)cc21 [Compound A177] | 4350 | – | – | –

Reference: patent publication US20250059162A1, “MULTI-PROTEIN DEGRADATION AGENT HAVING IMIDE SKELETON” (SUZHOU KINTOR PHARMACEUTICALS, INC., priority 2021, published 2025)
